From patent US20230011869A1 (Hoffmann-La Roche Inc., priority 2018, published 2023)
Counter-ions that a name gives are not always drawn.

Test system: Acinetobacter baumannii ATCC17978
Experiment: Antimicrobial susceptibility testing: 90% growth inhibitory concentration (IC90) determination, Iso-Sensitest broth
Assay type: cell-based
Conditions: 90% growth inhibitory concentration, Acinetobacter baumannii ATCC17978, Iso-Sensitest broth, OD 600 nm over 16 h; read-out: ATCC17978 IC90
Experimental: Antimicrobial Susceptibility Testing:
90% Growth Inhibitory Concentration (IC90) Determination
The in vitro antimicrobial activity of the compounds was determined according to the following procedure:
The assay used a 10-points Iso-Sensitest broth medium to measure quantitatively the in vitro activity of the compounds against Acinetobacter baumannii ATCC17978 and Acinetobacter baumannii ATCC17961.
Microtiter plates were incubated at 35±2° C.
Bacterial cell growth was determined with the measurement of optical density at λ=600 nm each 20 minutes over a time course of 16 h. Growth inhibition was calculated during the logarithmic growth of the bacterial cells with determination of the concentration inhibiting 50% (IC50) and 90% (IC90) of the growth.

SMILES	IC90 [nM]
COc1ccc(-c2cnc3c(Nc4ccc(C(=O)N5CC6(C5)CN(C5CC5)C6)c(C)c4)nccn23)cc1F [Example 434, (6-cyclopropyl-2,6-diazaspiro[3.3]heptan-2-yl)-[4-[[3-(3-fluoro-4-methoxyphenyl)imidazo[1,2-a]pyrazin-8-yl]amino]-2-methylphenyl]methanone]	1800
COc1ccc(-c2cnc3c(Nc4ccc(C(=O)N5CCC(O)CC5)c(C)c4)nccn23)cc1 [Example 7, (4-hydroxypiperidin-1-yl)(4-((3-(4-methoxyphenyl)imidazo[1,2-a]pyrazin-8-yl)amino)-2-methylphenyl)methanone]	660
COc1ccc(-c2cnc3c(Nc4ccc(C(=O)N5CCC(CNCCC#N)CC5)c(C)c4)nccn23)cc1 [Example 399, 3-[[1-[4-[[3-(4-methoxyphenyl)imidazo[1,2-a]pyrazin-8-yl]amino]-2-methylbenzoyl]piperidin-4-yl]methylamino]propanenitrile]	380
COc1ccc(-c2cnc3c(Nc4ccc(C(=O)N5CCC(C(=O)NCC(O)CO)CC5)c(C)c4)nccn23)cc1F (centres unmarked) [Example 402, N-(2,3-dihydroxypropyl)-1-[4-[[3-(3-fluoro-4-methoxyphenyl)imidazo[1,2-a]pyrazin-8-yl]amino]-2-methylbenzoyl]piperidine-4-carboxamide]	430

Other lines, results leading:

IC90 [nM]	SMILES
340	CCc1cc(Nc2nccn3c(-c4ccc(OC)c(F)c4F)cnc23)ccc1C(=O)N1CCN(C(=O)[C@@H]2CCNC[C@@H]2O)CC1 (racemic) [Example 547, [4-[[3-(2,3-difluoro-4-methoxyphenyl)imidazo[1,2-a]pyrazin-8-yl]amino]-2-ethylphenyl]-[4-[rac-(3R,4R)-3-hydroxypiperidine-4-carbonyl]piperazin-1-yl]methanone; hydrochloride]
2300	COc1ccc(-c2cnc3c(Nc4ccc(C(=O)N5CCN(C(=O)C(CC(=O)O)NC(=O)[C@@H](N)CCCCN)CC5)c(C)c4)nccn23)c(F)c1F (mixture of isomers) [Example 534, 4-[4-[4-[[3-(2,3-difluoro-4-methoxyphenyl)imidazo[1,2-a]pyrazin-8-yl]amino]-2-methylbenzoyl]piperazin-1-yl]-4-oxo-3-[[rac-(2R)-2,6-diaminohexanoyl]amino]bu-tanoic acid; hydrochloride]
180	COc1ccc(-c2cnc3c(Nc4ccc(C(=O)N5CCC(C(=O)NCCN6CCC6)CC5)c(C)c4)nccn23)cc1F [Example 61, N-(2-(azetidin-1-yl)ethyl)-1-(4-((3-(3-fluoro-4-methoxyphenyl)imidazo[1,2-a]pyrazin-8-yl)amino)-2-methylbenzoyl)piperidine-4-carboxamide]
2400	Cc1cc(Nc2nccn3c(-c4ccc(OCC#N)c(F)c4F)cnc23)ccc1C(=O)N1CCN(C(=O)N2CCN[C@@H](C(=O)O)C2)CC1 [Example 450, (2R)-4-[4-[4-[[3-[4-(cyanomethoxy)-2,3-difluorophenyl]imidazo[1,2-a]pyrazin-8-yl]amino]-2-methylbenzoyl]piperazine-1-carbonyl]piperazine-2-carboxylic acid]
180	COc1ccc(-c2cnc3c(Nc4ccc(C(=O)N5CCN(C(=O)N6CCO[C@@H](CN)C6)CC5)c(C)c4)nccn23)c(Cl)c1F [Example 484, [4-[(2S)-2-(aminomethyl)morpholine-4-carbonyl]piperazin-1-yl]-[4-[[3-(2-chloro-3-fluoro-4-methoxyphenyl)imidazo[1,2-a]pyrazin-8-yl]amino]-2-methylphenyl]methanone; for-mic acid]
910	Cc1cc(Nc2nccn3c(-c4ccc(OCc5ccncc5)c(F)c4F)cnc23)ccc1C(=O)N1CCC(CN)CC1 [Example 127, [4-(aminomethyl)-1-piperidyl]-[4-[[3-[2,3-difluoro-4-(4-pyridylmethoxy)phenyl]imidazo[1,2-a]pyrazin-8-yl]amino]-2-methyl-phenyl]methanone formate]
1200	Cc1cc(Nc2nccn3c(-c4ccc(OCC#N)c(F)c4F)cnc23)ccc1C(=O)N1CCN(C(=O)N2CCN[C@H](C(=O)O)C2)CC1 [Example 442, (2S)-4-[4-[4-[[3-[4-(cyanomethoxy)-2,3-difluorophenyl]imidazo[1,2-a]pyrazin-8-yl]amino]-2-methylbenzoyl]piperazine-1-carbonyl]piperazine-2-carboxylic acid]
180	COc1ccc(-c2cnc3c(Nc4ccc(C(=O)N5CCN(C(=O)NC[C@H](C)N)CC5)c(C)c4)nccn23)c(F)c1F [Example 149, N-[(2S)-2-aminopropyl]-4-[4-[[3-(2,3-difluoro-4-methoxy-phenyl)imidazo[1,2-a]pyrazin-8-yl]amino]-2-methyl-benzoyl]piperazine-1-carboxamide]
280	COc1ccc(-c2cnc3c(Nc4ccc(C(=O)N5CCN(C(=O)[C@H]6CCNC[C@H]6O)CC5)c(C)c4)nccn23)c(Cl)c1F [Example 217, [4-[[3-(2-chloro-3-fluoro-4-methoxy-phenyl)imidazo[1,2-a]pyrazin-8-yl]amino]-2-methyl-phenyl]-[4-[(3S,4S)-3-hydroxypiperidine-4-carbonyl]piperazin-1-yl]methanone]
290	N#CCOc1ccc(-c2cnc3c(Nc4ccc(C(=O)N5CCC(C(=O)OCC6CNCCN6)CC5)c(Cl)c4)nccn23)c(Cl)c1F (centres unmarked) [Example 96, piperazin-2-ylmethyl 1-[2-chloro-4-[[3-[2-chloro-4-(cyanomethoxy)-3-fluoro-phenyl]imidazo[1,2-a]pyrazin-8-yl]amino]benzoyl]piperidine-4-carboxylate trifluoroacetate]

Same assay, conditions: Acinetobacter baumannii, ATCC17978, 16 h, read-out: ATCC17978 IC90, 90% growth inhibitory concentration, Acinetobacter baumannii ATCC17978, Iso-Sensitest broth, OD 600 nm over 16 h

SMILES	IC90 [nM]
COc1ccc(-c2cnc3c(Nc4ccc(C(=O)N5CCN(C(=O)[C@@H]6C[C@@H](OC(=O)[C@@H](N)CCCCN)CN6)CC5)c(C)c4)nccn23)c(F)c1F [Example 561, [(3R,5S)-5-[4-[4-[[3-(2,3-difluoro-4-methoxy-phenyl)imidazo[1,2-a]pyrazin-8-yl]amino]-2-methyl-benzoyl]piperazine-1-carbonyl]pyrrolidin-3-yl] (2S)-2,6-diaminohexanoate formate]	123
Cc1cc(Nc2nccn3c(-c4ccc(O[C@H](C)C#N)c(F)c4F)cnc23)ccc1C(=O)N1CCN(CCN(C)C)CC1 [Example 239, (2R)-2-[4-[8-[4-[4-[2-(dimethylamino)ethyl]piperazine-1-carbonyl]-3-methyl-anilino]imidazo[1,2-a]pyrazin-3-yl]-2,3-difluoro-phenoxy]propanenitrile formate]	790
Cc1cc(Nc2nccn3c(-c4ccc(OC(F)F)cc4)cnc23)ccc1C(=O)N1CCN(C(=O)C2C3CCC2CNC3)CC1 (centres unmarked) [Example 488, [4-(3-azabicyclo[3.2.1]octane-8-carbonyl)piperazin-1-yl]-[4-[[3-[4-(difluoromethoxy)phenyl]imi-dazo[1,2-a]pyrazin-8-yl]amino]-2-methylphenyl]methanone; hy-drochloride]	240
Cc1cc(Nc2nccn3c(-c4ccc(OC(F)F)cc4)cnc23)ccc1C(=O)N1CCC(C(=O)N2C[C@H](O)[C@@H](O)[C@H](O)[C@H]2CO)CC1 [Example 349, [4-[[3-[4-(difluoromethoxy)phenyl]imi-dazo[1,2-a]pyrazin-8-yl]amino]-2-methylphenyl]-[4-[(2R,3R,4R,5S)-3,4,5-trihydroxy-2-(hydroxymethyl)piperidine-1-carbonyl]piperidin-1-yl]methanone]	660
COc1ccc(-c2cnc3c(Nc4ccc(C(=O)N5CCC(C(=O)N6CCNC(CO)C6)CC5)c(C)c4)nccn23)cc1F (centres unmarked) [Example 53, (1-(4-((3-(3-fluoro-4-methoxyphenyl)imidazo[1,2-a]pyrazin-8-yl)amino)-2-methylbenzoyl)piperidin-4-yl)(3-(hydroxymethyl)piperazin-1-yl)methanone 2,2,2-trifluoroacetate]	270
Cc1cc(Nc2nccn3c(-c4ccc(OC(F)F)cc4)cnc23)ccc1C(=O)N1CCC(C(=O)N[C@@H]2C(O)O[C@H](CO)[C@@H](O)[C@@H]2O)CC1 (mixture of isomers) [Example 351, 1-[4-[[3-[4-(difluoromethoxy)phenyl]imi-dazo[1,2-a]pyrazin-8-yl]amino]-2-methylbenzoyl]-N-[rac-(3R,4S,5R,6S)-2,4,5-trihydroxy-6-(hydroxymethyl)oxan-3-yl]piperidine-4-carboxamide]	720
COc1ccc(-c2cnc3c(Nc4ccc(C(=O)N5CCC(C(=O)N6CCN[C@@H](CO)C6)CC5)c(C)c4)nccn23)c(F)c1F [Example 544, [4-[[3-(2,3-difluoro-4-methoxyphenyl)imidazo[1,2-a]pyrazin-8-yl]amino]-2-methylphenyl]-[4-[(3R)-3-(hydroxymethyl)piperazine-1-carbonyl]piperidin-1-yl]methanone; formic acid]	100
Cc1cc(Nc2nccn3c(-c4ccc(OCC#N)c(F)c4Cl)cnc23)ccc1C(=O)N1CCC(C(=O)OC[C@@H]2CNCCN2)CC1 [Example 470, formic acid; [(2S)-piperazin-2-yl]methyl 1-[4-[[3-[2-chloro-4-(cyanomethoxy)-3-fluorophenyl]imidazo[1,2-a]pyrazin-8-yl]amino]-2-methylbenzoyl]piperidine-4-carboxylate]	92
CC[C@@H](N)C(=O)N1CCN(C(=O)c2ccc(Nc3nccn4c(-c5ccc(OC(F)F)cc5)cnc34)cc2C)CC1 [Example 261, (2R)-2-amino-1-[4-[4-[[3-[4-(difluoromethoxy)phenyl]imi-dazo[1,2-a]pyrazin-8-yl]amino]-2-methylbenzoyl]piperazin-1-yl]butan-1-one; hydrochloride]	1000
